In patent publication US7759101B2, “Ginsenoside glycosidases hydrolyzing ginsenoside sugar moieties and uses thereof” (priority 2000, dated 2010):

Columns and labels:
[1] = test system: ginsenoside glycosidases from A. niger; assay: Hydrolysis of ginsenosides with crude ginsenoside glycosidases from A. niger, products measured by TLC; format: biochemical, Aspergillus niger; details: hydrolysis of Rb1; pH 5.0, 30°C.
Procedure: Aspergillus niger FFCCDL-48 g was cultured in a medium containing 1% ginseng extracts and 3% wheat bran extracts at 30° C. for 54 hours. Cells were removed by centrifugation, after which (NH4)2SO4 powder was added to 2000 ml of the cell-free supernatant with stirring to 65% saturation. The solution was stored overnight at 4° C. and precipitated proteins were collected by centrifugation, resuspended in 80 ml of distilled water and dialyzed against 0.01M acetate buffer pH 5. Insolubles were removed by centrifugation, and the solution was adjusted to 200 ml with 0.01 M acetate buffer pH 5. The crude enzyme solution may be used to hydrolyze ginsenosides or to purify the enzymes.
100 mg each of ginsenosides Rb1, Rb2, Rc and Rd and 10 mg of ginsenoside Rg3 were dissolved in separate tubes containing 10 ml of 0.01M acetate buffer pH 5. 10 ml of the crude enzyme solution obtained in 1.1 was added to each tube and allowed to react at 30° C. for 18 hours. Then 10 ml of n-butanol was added to stop the reactions. The products were measured by thin layer chromatography (TLC) (Silica gel 60-F254, Merck; chloroform:methanol:water 70:30:5).
Experiments were carried out to explore the effects of temperature, pH, metal ions and reaction time on the enzyme reaction, in order to further characterize the enzymes.
100 mg of ginsenoside Rb1 was used in a reaction under the conditions as described in 1.2 and the effect of temperature was shown in Table 2.

[2] = test system: ginsenoside glycosidase I from ginseng plants; assay: Hydrolysis of ginsenosides with fraction 52 (ginsenoside glycosidase I) from ginseng plant; format: biochemical; details: ginsenoside glycosidase I from ginseng plant
Procedure: (§1) 200 g of fresh ginseng root was cut into pieces and added to 600 ml of 0.02 M acetate buffer pH 5. Supernatant was obtained by filtration after the mixture stand at 40° C. for 2 hours. To the supernatant (NH4)2SO4 was added gradually until 70% saturation and the mixture stand overnight at 4° C. Then protein pellets were collected by centrifugation and redissolved in 15 ml of distilled water. The solution was dialyzed against 0.02 M Tris-HCl pH 7.4. Insolubles were removed by centrifugation and the volume of the supernatant was adjusted to 20 ml.
(§2) 5 ml of the enzyme solution was subjected to a DEAE-Cellulose DE-25 column (Whatman, 1.4×6.7 cm). The column was eluted with a KCl gradient (0.06, 0.12, 0.18 and 0.24 M) in 0.02 M Tris-HCl pH 7.4. After elution, each fraction was tested for the activity of hydrolyzing ginsenosides. […] Fraction 52 can also hydrolyze the glucosidic bond at the twentieth carbon atom of Rb and Rc to give ginsenoside F2.

[3] = test system: ginsenoside glycosidase III from ginseng plant; assay: Hydrolysis of Rd with fraction 37 (ginsenoside glycosidase III) from ginseng plant; format: biochemical; details: ginsenoside glycosidase III from ginseng plant
Procedure: as §1, §2

[4] = test system: ginsenoside glycosidases from wheat bran; assay: Hydrolysis of ginsenosides with ginsenoside glycosidases from wheat bran; format: biochemical; details: enzymes from wheat bran
Procedure: 500 g of wheat bran was added to 2500 ml of 0.02 M acetate buffer pH 5 and extracted at 40° C. for 2 hours. 2000 ml of supernatant were obtained by filtration to which (NH4)2SO4 was added gradually with stirring until 70% saturation. The mixture stand at 4° C. overnight. Protein pellets were collected by centrifugation and redissolved in 80 ml of distilled water and dialyzed against 0.02 M acetate buffer pH 5.0. Insolubles were removed by centrifugation and the supernatant was adjusted to a volume of 200 ml to obtain the crude enzyme solution.
10 ml of the enzyme solution was allowed to react with 10 ml of 1% ginsenoside substrate at 40° C. for 20 hours.

[5] = test system: ginsenoside glycosidase I; assay: Hydrolysis of ginsenosides with Fraction 36 (ginsenoside glycosidase I); format: biochemical, Aspergillus niger; details: Fraction 36; substrates Rb1, Rb2, Rc, Rd 0.5%; Rg3, F2, Rh2, C—K, Rg2 0.05%; pH 5.0, 30° C.
Procedure: 10 ml of the enzyme solution obtained in 1.1 was subjected to a DEAE-Cellulose DE-52 column (Pharamcia, 1.5×6.7 cm) to absorb the enzyme protein. The column was then eluted with a NaCl gradient (0.06, 0.12, 0.18, 0.24, 0.3, 0.4, 0.5 and 0.6M).
Fractions 36 and 54 from the DEAE-Cellulose column appeared as one dot on a SDS-polyacrylamide gel, representing the purified enzymes.
Fraction 36 which was eluted with 0.12 M NaCl from the DEAE-Cellulose column was lyophilized and appeared as a single dot with a molecular weight of 51,000 Daltons when running on a SDS-polyacrylamide gel.
To observe the differences between the ginsenoside glycosidases of the invention and known exo-cellulases, the ginsenoside glycosidases of the invention were compared with cellulose β-glucosidase (E.C. 3.2.1.21) in two reactions with 0.5% ginsenosides Rb1 or Rd as substrate.

effect of metal ions on the enzyme reaction [1]	effect of metal ion on the enzyme [2]	effect of metal ion on the enzyme [3]	effect of metal ion on the enzyme activity [4]	SMILES	Percentage of C—K in the reaction product [5] [%]	Percentage of aglycone in the reaction product [5] [%]	further results
			enhance the enzyme activity	[Fe+2] [Fe^++]			
slightly accelerate the conversion rate			enhance the enzyme activity	[Mg+2] [Mg^++]			

Second part, the compound before the results:

SMILES	effect of metal ions on the enzyme reaction [1]	effect of metal ion on the enzyme [2]	effect of metal ion on the enzyme [3]	effect of metal ion on the enzyme activity [4]	Percentage of C—K in the reaction product [5] [%]	Percentage of aglycone in the reaction product [5] [%]	further results
[Ca+2] [Ca^++]	slightly accelerate the conversion rate	enhancing effect	enhancing effect				
[Cu+2] [Cu^++]	inhibit the reaction	inhibitory effect	inhibitory effect	inhibitory effect			
CC(C)=CCC[C@](C)(O[C@@H]1O[C@H](CO)[C@@H](O)[C@H](O)[C@H]1O)[C@H]1CC[C@]2(C)[C@@H]1[C@H](O)C[C@@H]1[C@@]3(C)CC[C@H](O)C(C)(C)[C@@H]3CC[C@]12C [C—K, ginsenoside C-K]					97	3	
CC(C)=CCC[C@](C)(O[C@@H]1O[C@H](CO)[C@@H](O)[C@H](O)[C@H]1O)[C@H]1CC[C@]2(C)[C@@H]1[C@H](O)C[C@@H]1[C@@]3(C)CC[C@H](O[C@@H]4O[C@H](CO)[C@@H](O)[C@H](O)[C@H]4O)C(C)(C)[C@@H]3CC[C@]12C [F2, ginsenoside F2]					62	5	Percentage of F2 in the reaction product [5]: 30%; Percentage of Rh2 in the reaction product [5]: 3%
